Reference: the supplement of paper PMC10307832

Experiments:
Assay in all cases: relative viability (nuclei count vs DMSO), 5 days (fraction); higher = more cells survive
[1] = compound: CCC1=CN=CN=C1N2CCN(CC2)CC3=NC4=C(N3)C=C(C=C4)C(F)(F)F
How it was run: (§1)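 Cells of lung cancer lines were placed in 1536-well plates and kept overnight at 37 °C. Pinning then delivered five library-drug doses (not always all listed), spaced by √10, onto plates anchored with vehicle, and the cells were left 5 days without changing medium. One step fixed, permeabilised and stained them with Hoechst, and MetaXpress counted nuclei in 4× images. Viability, as a median over plates, is treated-well nuclei divided by vehicle-well nuclei, with acceptance only at control CV below 25% and at least one doubling.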

[2] = compound: CCn1c(-c2nonc2N)nc2cnc(Oc3cccc(NC(=O)c4ccc(OCCN5CCOCC5)cc4)c3)cc21
How it was run: as §1

Mirin = compound: N=C1NC(=O)/C(=C/c2ccc(O)cc2)S1 [Mirin]
How it was run: as §1

[3] = compound: CCn1c(-c2nonc2N)nc2cnc(Oc3cccc(NC(=O)c4ccc(OCCN5CCOCC5)cc4)c3)cc21 + O=C(CCCCCCC(=O)Nc1ccccc1)NO [Vorinostat] (partner 1 µM)
How it was run: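 Relative viability equals treated-well nuclei counts divided by vehicle-well nuclei counts. Counts came from 4× images of lung cancer cell lines grown in 1536-well plates for 5 days after pin-tool dosing on the day after seeding. Dosing used one drug alone or a fixed anchor-drug dose plus five library-drug doses (not always all listed) in √10 steps, and values are medians of duplicate plates.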

UMC-11
relative viability ([1]; 0.04 µM): 0.925 | relative viability ([1]; 0.1265 µM): 0.948 | relative viability ([1]; 0.4 µM): 0.933 | relative viability ([1]; 1.265 µM): 0.838 | relative viability ([1]; 4 µM): 0.888 | relative viability ([2]; 0.04 µM): 0.965 | relative viability ([2]; 0.1265 µM): 0.85 | relative viability ([2]; 0.4 µM): 0.481 | relative viability ([2]; 1.265 µM): 0.275 | relative viability ([2]; 4 µM): 0.236 | relative viability (Mirin; 0.25 µM): 1.01 | relative viability (Mirin; 0.7906 µM): 0.657 | relative viability (Mirin; 2.5 µM): 1.02 | relative viability (Mirin; 7.906 µM): 0.803 | relative viability (Mirin; 25 µM): 0.608 | relative viability ([3]; first compound 0.04 µM): 0.427 | relative viability ([3]; first compound 0.1265 µM): 0.478 | relative viability ([3]; first compound 0.4 µM): 0.437 | relative viability ([3]; first compound 1.265 µM): 0.152 | relative viability ([3]; first compound 4 µM): 0.158
